From US9284325B2, “Spectinamides as anti-tuberculosis agents” (UNIVERSITY OF TENNESSEE RESEARCH FOUNDATION, priority 2009, dated 2016) come the findings set out here.

Values after ≈ are worked out from the molar mass of the structure shown. Structures can show the parent of a compound that is named as a salt. Where two headings read alike, the source gives them in different places. Where only a bound is given, the exact number is not on record here.

The subject of assay [1] is M. tuberculosis H37Rv. Nature of the assay: MIC determination by microbroth dilution, anti-tuberculosis activity. It is filed as cell-based, Mycobacterium tuberculosis. (In general: Dilution methods test growth across graded concentrations, often in twofold steps.)
For assay [2], the system named is S. aureus 8325 or strain ATCC 29213. Nature of the assay: MIC determination by microbroth dilution. The following applies: S. aureus 8325 or strain ATCC 29213 (for 1471-1544); for MIC: Staphylococcus aureus, ATCC29213. The assay is classed as cell-based, Staphylococcus aureus.
Assay [3] concerns Strep. pyogenes ATCC 700294. Nature of the assay: MIC determination by microbroth dilution. The assay is classed as cell-based, Streptococcus pyogenes. The following applies: for MIC: Streptococcus pyogenes, ATCC700294, read-out: MIC S. pyogenes.
Assay [4] relates to Strep. pneumoniae DAW27 or strain R6. Description: MIC determination by microbroth dilution. The assay is classed as cell-based, Streptococcus pneumoniae. The following applies: Strep. pneumoniae DAW27 or strain R6 (for 1443-1544); for MIC: Streptococcus pneumoniae, read-out: MIC S. pneumoniae.
Assay [5] has as its system E. faecalis ATCC 33186. Description: MIC determination by microbroth dilution. The assay is classed as cell-based, Enterococcus faecalis. The following applies: for MIC: Enterococcus faecalis, ATCC33186.
The test system of assay [6] is B. anthracis Sterne 34F2. Nature of the assay: microbe, parasite or virus in culture. The assay is classed as cell-based, Bacillus anthracis. The settings on record: for MIC: Bacillus anthracis, STERNE34F2, read-out: MIC B. anthracis 34F2.
Assay [7] concerns Burkholderia cepacia ATCC 25416. Description: MIC determination by microbroth dilution. The assay is classed as cell-based. The following applies: for MIC: ATCC25416, read-out: MIC B. cepcia.
Assay [8] relates to Proteus mirabilis ATCC 25933. Nature of the assay: MIC determination by microbroth dilution. It is filed as cell-based. The settings on record: for MIC: ATCC25933.
The subject of assay [9] is Proteus vulgaris ATCC 33420. Nature of the assay: MIC determination by microbroth dilution. The assay is classed as cell-based. The following applies: for MIC: ATCC33420.
The test system of assay [10] is Klebsiella pneumoniae ATCC 33495. Nature of the assay: MIC determination by microbroth dilution. It is filed as cell-based. The settings on record: for MIC: ATCC33495.
Assay [11] relates to Acinetobacter baumannii ATCC 19606. Description: MIC determination by microbroth dilution. It is filed as cell-based. The following applies: for MIC: ATCC19606.
Assay [12] deals with P. aeruginosa PAO1. Description: MIC determination by microbroth dilution. It is filed as cell-based, Pseudomonas aeruginosa. The settings on record: for MIC: Pseudomonas aeruginosa.
Assay [13] deals with Strenotrophomonas maltophilia ATCC 13637. Description: MIC determination by microbroth dilution. It is filed as cell-based.
For assay [14], the system named is E. coli K12. Description: MIC determination by microbroth dilution. The assay is classed as cell-based, Escherichia coli. The following applies: for MIC: Escherichia coli, K12.
The subject of assay [15] is E. coli K12 ΔtolC. Description: microbe, parasite or virus in culture. The assay is classed as cell-based. The following applies: for MIC: Escherichia coli, read-out: MIC E. coli K12 ΔtolC.
Assay [16] relates to E. coli ribosomes. The assay is classed as biochemical. The settings on record: for relative inhibitory activity on luciferase production: tested at 0.66 and 6.6 μM, FIG. 5; for IC50, 50% inhibition of luciferase biosynthesis in S30 assay: E. coli S30 transcription/translation assay.
Where [17] appears, read: Mycobacterium tuberculosis, H37RV, 168 h, read-out: MIC.

With `CN[C@@H]1[C@H](O)[C@H](NC)C2O[C@]3(O)C(OC2[C@H]1O)O[C@H](C)C[C@H]3NC(=O)c1ccco1` (stereo partly drawn) [Compound 1365, 3′-Dihydro-3′-deoxy-4(R)-furan-2-carboxylicamino spectinomycin Dihydrochloride], the MIC is 100 µg/mL in assay [1] (setting [17]); over 200 µg/mL in [2]; over 200 µg/mL in assay [3]; over 200 µg/mL in assay [4]; over 200 µg/mL in assay [5]; over 200 µg/mL in [6]. For the same compound, the MIC in [7], in [8], in [9], in [10], in assay [11] and in assay [12] was over 200 µg/mL throughout. Further, the MIC in assay [13] is over 200 µg/mL; in assay [14] it was over 200 µg/mL; in [15] it was 200 µg/mL. Moreover, in [16], the “relative inhibitory activity on luciferase production” value (from here on “relative inhibitory activity”) is “less active than 1329”.
In the case of `CN[C@@H]1[C@H](O)[C@H](NC)C2O[C@]3(O)C(OC2[C@H]1O)O[C@H](C)C[C@H]3NCc1ccc(F)cc1` (stereo partly drawn) [Compound 1424, 3′-Dihydro-3′-deoxy-4(R)-4-fluoro)benzylamino spectinomycin Trihydrochloride], the MIC in [1] (setting [17]) was 200 µg/mL; in assay [2] it was 50 µg/mL; in [3], 50 µg/mL; in assay [4] it was 25 µg/mL; in assay [5] it was 100 µg/mL; in assay [6], 100 µg/mL. The MIC in assay [7] is over 200 µg/mL; in assay [8], over 200 µg/mL; in [9], over 200 µg/mL; in assay [10], over 200 µg/mL; in [11], over 200 µg/mL; in assay [12], 200 µg/mL. In addition, the MIC in [13] was over 200 µg/mL; in assay [14], 200 µg/mL; in assay [15] it was 50 µg/mL. Moreover, in assay [16], the “IC50, 50% inhibition of luciferase biosynthesis in S30 assay” value (shortened to “IC50, 50% inhibition”) is 0.80 µg/mL. Moreover, the “relative inhibitory activity” value in assay [16] is reported as “inhibited well”.
For `CN[C@@H]1[C@H](O)[C@H](NC)C2O[C@]3(O)C(OC2[C@H]1O)O[C@H](C)C[C@H]3NC(=O)CNC(C)(C)C` (stereo partly drawn) [Compound 1351, 3′-Dihydro-3′-deoxy-4(R)-(tert-butylamino)-acetylamino spectinomycin Dihydrochloride], the MIC in assay [1] (setting [17]) was 25 µg/mL; in assay [2], 200 µg/mL; in assay [3], 100 µg/mL; in assay [4] it was 200 µg/mL; in assay [5] it was over 200 µg/mL; in assay [6], 50 µg/mL. Moreover, the MIC in assay [7] is over 200 µg/mL; in assay [8], over 200 µg/mL; in assay [9], over 200 µg/mL; in assay [10], 200 µg/mL; in [11], over 200 µg/mL; in [12], 200 µg/mL. The MIC was 50 µg/mL in assay [13], over 200 µg/mL in assay [14] and 50 µg/mL in [15]. Further, in [16], the “IC50, 50% inhibition” value is 0.22 µg/mL. Besides, the “relative inhibitory activity” value in assay [16] is recorded as “next most active”.
In the case of `CN[C@@H]1[C@H](O)[C@H](NC)C2O[C@]3(O)C(OC2[C@H]1O)O[C@H](C)C[C@H]3NC(=O)Cc1ccccc1OC` (stereo partly drawn) [Compound 1448, 3′-Dihydro-3′-deoxy-4(R)-(2-methoxy-phenyl)acetylamino spectinomycin Dihydrochloride], the MIC in assay [1] (setting [17]) is 200 µg/mL; in [2], over 200 µg/mL; in [3], 25 µg/mL; in assay [4] it was 25 µg/mL; in assay [5] it was over 200 µg/mL; in assay [6], over 200 µg/mL. In addition, the MIC is 200 µg/mL in assay [7]; over 200 µg/mL in assay [8]; over 200 µg/mL in assay [9]; over 200 µg/mL in assay [10]; over 200 µg/mL in assay [11]; over 200 µg/mL in [12]. Also, the MIC in assay [13], in assay [14] and in assay [15] was over 200 µg/mL each time. Also, the “IC50, 50% inhibition” value in assay [16] is 2.41 µg/mL.
In turn, “3′-Dihydro-3′-deoxy-4(R)-dodecanoylamino spectinomycin Dihydrochloride [Compound 1366]” came in with an MIC in assay [1] of 1.6 µg/mL. For the same compound, in assay [2], the “MIC S. aureus” value was 25 µg/mL. For the same compound, the “MIC S. pyogenes” value in assay [3] was over 200 µg/mL. The “MIC S. pneumoniae” value in assay [4] turned out to be 25 µg/mL. In addition, the “MIC E. faecalis” value in assay [5] was 25 µg/mL. Further, the “MIC B. anthracis 34F2” value in [6] is over 200 µg/mL. The “MIC B. cepcia” value in assay [7] is over 200 µg/mL. The “MIC P. mir” value in assay [8] is over 200 µg/mL. In assay [9], the “MIC P. vul” value is over 200 µg/mL. Besides, in assay [10], the “MIC K. pneu.” value was over 200 µg/mL. For the same compound, the “MIC A. bau.” value in assay [11] is over 200 µg/mL. Further, the “MIC P. aer.” value in assay [12] amounted to 50 µg/mL. Moreover, the “MIC S. mal” value in assay [13] came to 25 µg/mL. Moreover, the “MIC E. coli K12” value in assay [14] (E. coli K12) was over 200 µg/mL. Further, the “MIC E. coli K12 ΔtolC” value in [15] (tolC knockout strain, defective multi-drug efflux pump) worked out at 12.5 µg/mL. In addition, the “IC50, 50% inhibition” value in [16] amounted to 15.3 µg/mL.
`CN[C@@H]1[C@H](O)[C@H](NC)C2O[C@]3(O)C(OC2[C@H]1O)O[C@H](C)C[C@H]3NC(=O)Cc1ccc(-c2cccc(OC)c2)cn1` (stereo partly drawn) [Compound 1543, 3′-Dihydro-3′-deoxy-4(R)-(5-(3-methoxyphenyl)pyridin-2-yl)acetyl-amino spectinomycin tribromide]: the MIC in assay [1] (setting [17]) was 6.25 µg/mL; in assay [2], 100 µg/mL; in [3], 6.25 µg/mL; in [4], 3.1 µg/mL; in [5] it was 12.5 µg/mL; in assay [6], over 200 µg/mL. Also, the MIC in assay [7], in assay [8], in [9], in [10], in [11] and in [12] was over 200 µg/mL throughout. The figures for the MIC in [13], in [14] and in assay [15] were 200 µg/mL, over 200 µg/mL and under 6.25 µg/mL, respectively.
As for `CN[C@@H]1[C@H](O)[C@H](NC)C2O[C@]3(O)C(OC2[C@H]1O)O[C@H](C)C[C@H]3NC(=O)Cc1csc(Nc2ccccc2)n1` (stereo partly drawn) [Compound 1520, 3′-Dihydro-3′-deoxy-4(R)-(2-(phenylamino)thiazol-4-yl)acetylamino spectinomycin trihydrobromide], the MIC was 6.25 µg/mL in assay [1] (setting [17]); 100 µg/mL in assay [2]; 3.1 µg/mL in assay [3]; 3.1 µg/mL in assay [4]; 100 µg/mL in assay [5]; over 200 µg/mL in assay [6]. In addition, the MIC in [7], in assay [8], in assay [9], in [10], in assay [11] and in [12] was over 200 µg/mL throughout. Besides, the MIC in assay [13] is over 200 µg/mL; in [14], over 200 µg/mL; in assay [15], 25 µg/mL.
`CN[C@@H]1[C@H](O)[C@H](NC)C2O[C@]3(O)C(OC2[C@H]1O)O[C@H](C)C[C@H]3NC(=O)Cc1cn(Cc2ccccc2)nn1` (stereo partly drawn) [Compound 1537, 3′-Dihydro-3′-deoxy-4(R)-2-(1-benzyl-1H-1,2,3-triazol-4-yl)acetyl-amino spectinomycin tetrabromide]: the MIC is 50 µg/mL (≈ 93.9 µM) in [1] (setting [17]); 100 µg/mL (≈ 188 µM) in [2]; 3.1 µg/mL (≈ 5.82 µM) in [3]; 3.1 µg/mL (≈ 5.82 µM) in [4]; 25 µg/mL (≈ 46.9 µM) in assay [5]; over 200 µg/mL in assay [6]. Besides, the MIC in [7], in assay [8], in assay [9], in assay [10], in assay [11] and in assay [12] was over 200 µg/mL in each case. The values for the MIC in assay [13], in assay [14] and in [15] were over 200 µg/mL, over 200 µg/mL and 12.5 µg/mL (≈ 23.5 µM), respectively.
As to `CN[C@@H]1[C@H](O)[C@H](NC)C2O[C@]3(O)C(OC2[C@H]1O)O[C@H](C)C[C@H]3NC(=O)Cc1cccc(OC)c1` (stereo partly drawn) [Compound 1400, 3′-Dihydro-3′-deoxy-4(R)-(3-methoxy-phenyl)acetylamino spectinomycin Dihydrochloride], the MIC in assay [1] (setting [17]) is 12.5 µg/mL; in [2] it was over 200 µg/mL; in [3], over 200 µg/mL; in [4], 100 µg/mL; in assay [5], 100 µg/mL; in assay [6], 200 µg/mL. Further, the MIC in assay [7] is over 200 µg/mL; in assay [8] it was over 200 µg/mL; in assay [9] it was over 200 µg/mL; in assay [10], over 200 µg/mL; in assay [11] it was over 200 µg/mL; in [12] it was 100 µg/mL. Moreover, the MIC in [13], in [14] and in assay [15] was over 200 µg/mL in each case.
